We go through 4 compounds from publication PMC6988731 (Bioorganic & medicinal chemistry, 2011).

The target in the experiment is rat TRPV1 (Rattus norvegicus, UniProt O35433). Description: competitive binding assay with [3H]RTX, rat TRPV1 expressed in CHO cells. The note with it: rTRPV1/CHO; for fold less potent than parent 3: receptor activity (binding affinity and antagonism), relative to 3; for fold reduction in binding affinity and antagonism compared to 50: relative to 50.
rat TRPV1, sequence (O35433 whole entry): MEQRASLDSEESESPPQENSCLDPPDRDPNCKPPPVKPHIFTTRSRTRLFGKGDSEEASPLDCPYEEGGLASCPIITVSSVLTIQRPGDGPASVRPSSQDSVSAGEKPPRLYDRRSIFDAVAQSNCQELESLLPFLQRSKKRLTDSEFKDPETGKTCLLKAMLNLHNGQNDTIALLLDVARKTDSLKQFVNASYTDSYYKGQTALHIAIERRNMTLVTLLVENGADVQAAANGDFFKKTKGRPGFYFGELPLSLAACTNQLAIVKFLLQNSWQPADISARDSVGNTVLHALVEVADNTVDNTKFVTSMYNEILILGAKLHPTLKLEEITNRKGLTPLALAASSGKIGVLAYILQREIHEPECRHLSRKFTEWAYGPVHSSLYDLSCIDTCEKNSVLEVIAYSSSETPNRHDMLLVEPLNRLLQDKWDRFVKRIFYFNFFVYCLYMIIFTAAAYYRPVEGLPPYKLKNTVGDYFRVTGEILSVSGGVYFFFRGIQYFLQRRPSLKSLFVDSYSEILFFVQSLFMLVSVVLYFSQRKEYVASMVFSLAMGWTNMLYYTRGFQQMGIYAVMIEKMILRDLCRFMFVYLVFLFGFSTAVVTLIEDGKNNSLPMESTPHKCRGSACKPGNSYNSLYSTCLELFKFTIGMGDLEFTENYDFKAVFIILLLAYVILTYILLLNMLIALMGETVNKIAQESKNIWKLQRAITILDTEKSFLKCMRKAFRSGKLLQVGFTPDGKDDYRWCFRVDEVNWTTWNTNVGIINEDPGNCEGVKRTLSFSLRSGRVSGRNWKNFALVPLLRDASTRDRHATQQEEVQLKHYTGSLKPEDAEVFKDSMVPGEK

Take `CC(C(=O)NCc1ccc(I)cc1)c1ccc(NS(C)(=O)=O)c(F)c1` (stereo not shown) [compound 24, 2-(3-Fluoro-4-methanesulfonylamino-phenyl)-N-(4-iodo-benzyl)-propionamide]: the “fold less potent than parent 3” value is given as 10 fold.
Regarding `CC(C(=O)NCC=C1c2ccccc2CCc2ccccc21)c1ccc(NS(C)(=O)=O)c(F)c1` (stereo not shown) [compound 59, N-[2-(10,11-Dihydro-5H-dibenzo[a,d]cyclohepten-5-yliden)ethyl]-2-[3-fluoro-4-(methylsulfonylamino)phenyl]propionamide], the “fold reduction in binding affinity and antagonism compared to 50” value is reported as 5–10 fold.
The same measure, in the same setting: the value for `CC(C(=O)NCC=C1c2ccccc2C=Cc2ccccc21)c1ccc(NS(C)(=O)=O)c(F)c1` (stereo not shown) [compound 60, N-[2-Dibenzo[a,d]cyclohepten-5-ylidene-ethyl]-2-(3-fluoro-4-methylsulfonylamino-phenyl)-propionamide] was 5–10 fold.
Take `Cc1ccc(CCCNC(=O)C(C)c2ccc(NS(C)(=O)=O)c(F)c2)cc1C` (stereo not shown) [compound 40, N-[3-(3,4-Dimethylphenyl)propyl]-2-[3-fluoro-4-(methylsulfonylamino)phenyl]propionamide]: the “fold less potent than parent 3” value is listed as “ca. 10 fold”.
